A value given as a limit tells only on which side of the number the result lay.

The record followed here is patent publication US20230167073A1 (Teijin Pharma Limited, priority 2020, published 2023).

The target in this experiment is T1, Human TRPC6 (Homo sapiens, UniProt Q9Y210).
T1 construct: expressed in transfected cells
T1 sequence (Q9Y210 1-931): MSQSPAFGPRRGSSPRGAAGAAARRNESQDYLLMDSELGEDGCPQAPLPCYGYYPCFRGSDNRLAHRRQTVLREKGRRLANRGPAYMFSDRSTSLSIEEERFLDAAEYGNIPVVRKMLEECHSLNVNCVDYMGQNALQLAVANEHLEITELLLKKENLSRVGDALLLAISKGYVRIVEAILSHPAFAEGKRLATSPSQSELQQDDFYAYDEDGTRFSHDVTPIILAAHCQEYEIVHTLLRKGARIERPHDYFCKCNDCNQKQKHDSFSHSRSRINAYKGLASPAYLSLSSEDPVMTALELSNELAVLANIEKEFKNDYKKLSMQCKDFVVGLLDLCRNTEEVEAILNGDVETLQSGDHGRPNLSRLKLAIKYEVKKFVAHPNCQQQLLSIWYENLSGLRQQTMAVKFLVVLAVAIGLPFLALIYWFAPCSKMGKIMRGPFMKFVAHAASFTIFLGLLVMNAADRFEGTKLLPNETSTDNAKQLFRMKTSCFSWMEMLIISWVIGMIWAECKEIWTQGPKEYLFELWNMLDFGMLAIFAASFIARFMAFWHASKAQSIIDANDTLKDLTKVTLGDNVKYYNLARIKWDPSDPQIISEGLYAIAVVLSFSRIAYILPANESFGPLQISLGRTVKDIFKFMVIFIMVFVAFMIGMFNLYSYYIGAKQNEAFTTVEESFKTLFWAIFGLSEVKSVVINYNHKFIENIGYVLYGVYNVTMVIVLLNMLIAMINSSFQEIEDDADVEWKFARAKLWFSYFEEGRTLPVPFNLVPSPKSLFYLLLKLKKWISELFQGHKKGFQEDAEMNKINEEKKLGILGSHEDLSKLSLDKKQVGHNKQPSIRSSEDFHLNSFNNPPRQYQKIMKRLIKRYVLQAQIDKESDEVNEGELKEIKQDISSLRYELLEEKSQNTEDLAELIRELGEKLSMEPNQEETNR
Nature of the experiment: Evaluation of TRPC6 channel inhibitory activity (1), FLIPR Calcium 5 Assay Kit, OAG stimulation (Compound Nos. 1-1293). The class given is cell-based. Conditions: Human TRPC6 stably-expressing cells, OAG 30 μM, FLIPR Calcium 5 Assay Kit; read-out: Inhibitory activity (pIC50 class) (converted). In outline:
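TRPC6 (human) stable cells, 24 h culture; Ca5 no-wash dye + probenecid 30 min; cpd 20 min; OAG 30 μM final; ΔF (pre-cpd min to post-OAG max); 0%/100% = no cpd / no cpd + no OAG; 4PL → pIC50, binned +/++/+++.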
In the case of `N#Cc1ccc(-c2ccc(C3(CN)CC3)cc2)c(Oc2cnnc(-c3ccccc3)c2)c1` [Compound 83, 4-[4-[1-(aminomethyl)cyclopropyl]phenyl]-3-(6-phenylpyridazin-4-yl)oxybenzonitrile], the IC50 was more than 1000 nM.

As to `Cc1nc(Oc2cc(C#N)ccc2-n2cc(CC(N)C(=O)O)c3ccccc32)cc(-c2ccccc2)n1` (stereo not drawn) [compound 449, 2-amino-3-[1-[4-cyano-2-(2-methyl-6-phenylpyrimidin-4-yl)oxyphenyl]indol-3-yl]propanoic acid], the IC50 was more than 1000 nM. The value for `Cc1cc(Oc2cc(C#N)ccc2-c2ncc(C3(N)CC3)cn2)cc(N2CCOCC2)n1` [compound 462, 4-[5-(1-aminocyclopropyl)pyrimidin-2-yl]-3-(2-methyl-6-morpholin-4-ylpyridin-4-yl)oxybenzonitrile] was more than 1000 nM; that for `NCCc1cnc(-c2ccc(Cl)cc2Oc2cnn(CC(F)F)c2)nc1` [compound 1022, 2-[2-[4-chloro-2-[1-(2,2-difluoroethyl)pyrazol-4-yl]oxyphenyl]pyrimidin-5-yl]ethanamine] was more than 1000 nM. The result for `N#Cc1ccc(-n2cc(CCN)cn2)c(Oc2cnnc(N3CCOCC3)c2)c1` [Compound 282, 4-[4-(2-aminoethyl)pyrazol-1-yl]-3-(6-morpholin-4-ylpyridazin-4-yl)oxybenzonitrile] reads 10 to 1000 nM. `Cc1nc(Sc2cc(C#N)ccc2-c2ncc(CN)cn2)cc(N(C)C)n1` [compound 1263, 4-[5-(aminomethyl)pyrimidin-2-yl]-3-[6-(dimethylamino)-2-methylpyrimidin-4-yl]sulfanylbenzonitrile]: the IC50 was more than 1000 nM.

Take `Cn1nc(C2CC2)cc1Oc1cc(C#N)ccc1-c1cccn2c(CN)nnc12` [compound 515, 4-[3-(aminomethyl)-[1,2,4]triazolo[4,3-a]pyridin-8-yl]-3-(5-cyclopropyl-2-methylpyrazol-3-yl)oxybenzonitrile]: the IC50 was 10 to 1000 nM. The result for `Cc1cc(Oc2cc(C#N)ccc2-c2ncc([C@H](O)CN)cn2)cc(N2CCCC2)n1` [compound 499, 4-[5-[(1S)-2-amino-1-hydroxyethyl]pyrimidin-2-yl]-3-(2-methyl-6-pyrrolidin-1-ylpyridin-4-yl)oxybenzonitrile] reads less than 10 nM; that for `Cn1nc(N2CCOCC2)cc1C(=O)c1cc(F)ccc1-c1ccc(CCN)cn1` [compound 1106, [2-[5-(2-aminoethyl)pyridin-2-yl]-5-fluorophenyl]-(2-methyl-5-morpholin-4-ylpyrazol-3-yl)methanone], less than 10 nM; that for `N#Cc1ccc(-c2ncc(CN)cn2)c(C(=O)c2cnn(CC3CC3)c2)c1` [compound 1047, 4-[5-(aminomethyl)pyrimidin-2-yl]-3-[1-(cyclopropylmethyl)pyrazole-4-carbonyl]benzonitrile], less than 10 nM. The value for `CCc1cc(Oc2cc(C#N)ccc2-c2ccc(CN)cn2)n(C)n1` [compound 326, 4-[5-(aminomethyl)pyridin-2-yl]-3-(5-ethyl-2-methylpyrazol-3-yl)oxybenzonitrile] was less than 10 nM.

For the compound `Cc1nc(Oc2cc(C#N)ccc2-c2ncc(CCN)cn2)cc(OC2CCC2)n1` [compound 887, 4-[5-(2-aminoethyl)pyrimidin-2-yl]-3-(6-cyclobutyloxy-2-methylpyrimidin-4-yl)oxybenzonitrile], the IC50 was 10 to 1000 nM. The result for `N#Cc1ccc(-c2ncc(CN)cn2)c(C(=O)c2cnn(C3CCOCC3)c2)c1` [compound 1056, 4-[5-(aminomethyl)pyrimidin-2-yl]-3-[1-(oxan-4-yl)pyrazole-4-carbonyl]benzonitrile] reads 10 to 1000 nM; that for `Cn1nc(C(F)(F)F)cc1Oc1cc(C#N)ccc1-c1ncc([C@H](F)CN)cn1` [compound 903, 4-[5-[(1S)-2-amino-1-fluoroethyl]pyrimidin-2-yl]-3-[2-methyl-5-(trifluoromethyl)pyrazol-3-yl]oxybenzonitrile], less than 10 nM. The result for `Cn1nc(-c2ccccc2)cc1Oc1cc(C#N)ccc1-c1ccc(CCN)nn1` [compound 312, 4-[6-(2-aminoethyl)pyridazin-3-yl]-3-(2-methyl-5-phenylpyrazol-3-yl)oxybenzonitrile] reads less than 10 nM; that for `Cc1nc(Oc2cc(C#N)ccc2-n2cc([C@@H](O)CN)cn2)cc(-c2ccccc2)n1` [Compound 170, 4-[4-[(1R)-2-Amino-1-hydroxyethyl]pyrazol-1-yl]-3-(2-methyl-6-phenylpyrimidin-4-yl)oxybenzonitrile], less than 10 nM. As to `Cn1nc(C2CC2)cc1Oc1cc(C#N)ccc1-c1ccc(C[C@H](N)C(=O)O)cc1` [compound 436, (2S)-2-amino-3-[4-[4-cyano-2-(5-cyclopropyl-2-methylpyrazol-3-yl)oxyphenyl]phenyl]propanoic acid], the IC50 was more than 1000 nM. The result for `N#Cc1ccc(-c2ncc(CCN)cn2)c(Sc2cnnc(N3CCOCC3)c2)c1` [compound 1257, 4-[5-(2-aminoethyl)pyrimidin-2-yl]-3-(6-morpholin-4-ylpyridazin-4-yl)sulfanylbenzonitrile] reads 10 to 1000 nM. The result for `Cc1nc(Oc2cc(C#N)ccc2-c2ncc(CN)cn2)cc(OC2CC2)n1` [compound 898, 4-[5-(aminomethyl)pyrimidin-2-yl]-3-(6-cyclopropyloxy-2-methylpyrimidin-4-yl)oxybenzonitrile] reads more than 1000 nM; that for `Cn1nc(C2CC2)cc1Oc1cc(C#N)ccc1-c1ncc([C@H](O)CN)cn1` [compound 373, 4-[5-[(1S)-2-amino-1-hydroxyethyl]pyrimidin-2-yl]-3-(5 cyclopropyl-2-methylpyrazol-3-yl)oxybenzonitrile], less than 10 nM. The result for `N#Cc1ccc(-c2ccc(CCN)cc2)c(Oc2cnnc(-c3cccc(F)c3C#N)c2)c1` [Compound 84, 2-[5-[2-[4-(2-aminoethyl)phenyl]-5-cyanophenoxy]pyridazin-3-yl]-6-fluorobenzonitrile] reads 10 to 1000 nM; that for `Cc1nc(Oc2cc(C#N)ccc2-c2ccc(CCN)cc2)cc(-c2ncco2)n1` [Compound 34, 4-[4-(2-aminoethyl)phenyl]-3-[2-methyl-6-(1,3-oxazol-2-yl)pyrimidin-4-yl]oxybenzonitrile], 10 to 1000 nM.

As for `CC(C)C(N)c1cnc(-c2ccc(C#N)cc2Oc2cc(-c3ccccn3)nn2C)nc1` (stereo not drawn) [compound 768, 4-[5-(1-amino-2-methylpropyl)pyrimidin-2-yl]-3-(2-methyl-5-pyridin-2-ylpyrazol-3-yl)oxybenzonitrile], the IC50 is less than 10 nM.

`Cn1nc(N2CCCC2)cc1Oc1cc(F)ccc1-c1ncc(CN)cn1` [compound 995, [2-[4-fluoro-2-(2-methyl-5-pyrrolidin-1-ylpyrazol-3-yl)oxyphenyl]pyrimidin-5-yl]methanamine]: the IC50 is 10 to 1000 nM. The result for `Cn1nccc1Oc1cc(C#N)ccc1-c1ccc(CCN)cn1` [compound 300, 4-[5-(2-aminoethyl)pyridin-2-yl]-3-(2-methylpyrazol-3-yl)oxybenzonitrile] reads 10 to 1000 nM; that for `Cc1nn(CC(C)C)cc1Oc1cc(C#N)ccc1-c1ncc(CN)cn1` [compound 802, 4-[5-(aminomethyl)pyrimidin-2-yl]-3-[3-methyl-1-(2-methylpropyl)pyrazol-4-yl]oxybenzonitrile], less than 10 nM.

Take `NCCc1cnc(-c2ccc(F)cc2Oc2cnn(-c3ccccn3)c2)nc1` [compound 1004, 2-[2-[4-fluoro-2-(1-pyridin-2-ylpyrazol-4-yl)oxyphenyl]pyrimidin-5-yl]ethanamine]: the IC50 is 10 to 1000 nM.

On to `Cc1cc(Oc2cc(C#N)ccc2-c2ncc([C@@H](F)CN)cn2)cc(N2CCOCC2)n1` [compound 876, 4-[5-[(1R)-2-amino-1-fluoroethyl]pyrimidin-2-yl]-3-(2-methyl-6-morpholin-4-ylpyridin-4-yl)oxybenzonitrile], for which the IC50 was less than 10 nM. The value for `Cn1nc(-c2ccccc2)cc1Oc1cc(C#N)ccc1-c1ccc(CCNC2COC2)cn1` [Compound 207, 3-(2-methyl-5-phenylpyrazol-3-yl)oxy-4-[5-[2-(oxetan-3 ylamino)ethyl]pyridin-2-yl]benzonitrile] was 10 to 1000 nM; that for `Cc1nc(Oc2cc(C#N)ccc2-n2cc(CN)cn2)cc(N2CCOCC2)n1` [compound 298, 4-[4-(aminomethyl)pyrazol-1-yl]-3-(2-methyl-6-morpholin-4-ylpyrimidin-4-yl)oxybenzonitrile] was 10 to 1000 nM.
